Laboratory results published in PMC10303920, “Competition between skin antimicrobial peptides and commensal bacteria in type 2 inflammation enables survival of S. aureus” (Cell reports, 2023).

Assays:
ShA9-ΔLanti = assay: Synergistic antimicrobial assay between LL-37 and ShA9 lantibiotics; format: cell-based, Staphylococcus hominis; details: sub-antimicrobial doses of LL-37 (4 or 8 μM) plus conditioned medium from ShA9-WT, 90% RPMI/10% TSB, 30°C, 24 h; Figure 5A
Method: ShA9 or S. epidermidis A11 strains, lantibiotic producing CoNS, were cultured in TSB at 37°C with shake overnight. Bacteria were removed by centrifugation, followed by sterile filtration with 0.22μm membrane. Lantibiotics from each strain was precipitated by adding ammonium sulfate into the sterile conditioned media at 70% saturation. The ammonium sulfate precipitation of conditioned media were dissolved in 90% RPMI1640 supplemented by 10% TSB. ShA9-DLanti mutant or S. hominis C6 strain were cultured in TSB at 37°C overnight and washed with PBS. These strain was incubated with conditioned media precipitation (0–100%) along with 0, 4, 8mM of LL-37 in 90% RPMI/10% TSB at 30°C for 24 h. Concentration of conditioned media precipitation added was calculated based on the original volume of sterile conditioned media. Bacterial survival was evaluated by measuring OD600 or counting CFUs.

[1] = test system: CoNS with antimicrobial activity within the microbial community of human skin swabs; assay: Effect of low dose LL-37 on mixed bacterial communities from healthy human forearm skin in vitro; format: cell-based, coagulase-negative Staphylococcus; details: skin swabs from forearms of 5 healthy subjects, media with a low dose of LL-37, 4 h; Figure 4H
Method: Finally, the capacity of AMPs to shape the composition of the skin CoNS community was evaluated by examining the effects of LL-37 on survival of mixed communities of bacteria obtained from human skin (Figure 4G). Skin swab samples were obtained from the forearms of 5 healthy subjects (Table S4), and these mixed bacterial samples were incubated in media without or with a low dose of LL-37 for 4 h.
Individual isolated colonies of CoNS from human skin were grown on mannitol-salt agar with egg yolk (pink color without egg yolk reaction), randomly picked and transferred to individual wells containing TSB (400μL) in a 96-well cluster tube. Each plate also contained wells with a non-antimicrobial strain of S. epidermidis (S. epidermidis 1457) as a negative control, a potent antimicrobial strain of Staphylococcus hominis (A9 strain) as positive control, and blank wells without bacteria. CoNS were cultured at 37°C overnight with shaking. Growth was evaluated by OD600. Bacteria were removed by centrifugation followed by sterile filtration with a 0.22μm membrane. Sterile conditioned media were mixed with fresh TSB at 1:1. The antimicrobial activity released from each CoNS clone was evaluated by culturing 1 × 10^4 CFU of S. aureus (ATCC35556) in 200μL of diluted conditioned media at 30°C for 24 h. […] To determine frequency of antimicrobial CoNS, up to 48 CoNS vvvcolonies were analyzed.

[2] = test system: mixture of S. aureus (ATCC35556), ShA9-WT and ShA9-ΔLanti; assay: Staphylococcus competition assay in vitro; format: cell-based, Staphylococcus aureus, Staphylococcus hominis; details: RPMI1640, 1 × 10^6 CFU/mL each strain, 30°C, 3 h, Figure 6B
Method: Three Staphylococcus strains, S. aureus (ATCC35556), ShA9-WT (antibiotic-producing strain) or ShA9-Dlanti mutant (non-antimicrobial strain) were individually cultured in TSB. Bacterial cells were washed with PBS and re-suspended in fresh PBS. For in vitro competition assay, three bacterial strains were suspended in RPMI1640 media (1mL) at 1 × 10^6 CFU/mL each and LL-37 was added at 0, 1, 2, 4, 8, 16μM. Bacterial mixture were incubated at 30°C for 3 h without shaking. […] Proportion of three Staphylococcus strains was determined by CFU counting on mannitol salt agar with egg yolk for total Staphylococcus CFU and on Barid-Parker agar for S. aureus. Relative proportion of Staphylococcus species was determined as following; S. aureus: CFUs on Baird-Parker CFU/CFUs on mannitol salt agar, CoNS: CFUs on mannitol salt agar – CFUs on Baird-Parker. Ratio of ShA9-WT to ShA9-DLanti mutant were measured by analyzing 12 colonies of pink color CoNS colonies without halo on mannitol salt agar from each sample with colony PCR using lantibiotic-specific primers (key resources table).
Survival of S. aureus and CoNS were measured on Baird-Parker agar for S. aureus or mannitol salt agar with egg yolk for total Staphylococcus species using easySpiral automatic diluter plater with exponential mode or circle mode and automatic colony counter (Interscience Inc., France). […]

[3] = test system: CoNS-AM+ strains of S. epidermidis or S. hominis; assay: Bacterial survival on pigskin, antibiotic-producing CoNS; format: cell-based; details: LL-37 2.5 nmol on 2.5 × 2.5 cm pigskin sheet, 1 × 10^6 CFU, 30°C, 24 h; Figure 4F
Method: Fresh-frozen pigskin sheets were obtained from Loretta Tomlin Animal Technologies (Livermore, CA) and sanitized by surgical brush with 3% chloroxylenol. The skin sheet was cut into 2.5 cm × 2.5 cm and rinsed with sterile PBS more than 20 times to remove chloroxylenol residue. Synthetic LL-37 (2.5nanomol/50μL H2O) or equal volume of vehicle was applied to the surface of sanitized pig skin. Antibiotic-producing or non-antibiotic-producing strain of CoNS (1 × 10^6 CFU/10μL PBS) was applied on the pigskin. Pigskin sheet was placed on a 6-well plate and incubated at 30°C for 24 h. The entire skin sheet was rubbed 50 times with nylon foam swab (Puritan) pre-moisturized with PBS to collect bacteria on the skin surface. Swab sample was suspended in 1mL of 85% TSB/15% glycerol and frozen until analysis.

S. hominis C6 strain = assay: Synergistic antimicrobial assay between LL-37 and Pep-5; format: cell-based, Staphylococcus hominis; details: strain lacking antimicrobial activity; 90% RPMI/10% TSB, 30°C, 24 h; Figure S9
Method: ShA9 or S. epidermidis A11 strains, lantibiotic producing CoNS, were cultured in TSB at 37°C with shake overnight. Bacteria were removed by centrifugation, followed by sterile filtration with 0.22μm membrane. Lantibiotics from each strain was precipitated by adding ammonium sulfate into the sterile conditioned media at 70% saturation. The ammonium sulfate precipitation of conditioned media were dissolved in 90% RPMI1640 supplemented by 10% TSB. ShA9-DLanti mutant or S. hominis C6 strain were cultured in TSB at 37°C overnight and washed with PBS. These strain was incubated with conditioned media precipitation (0–100%) along with […] of LL-37 in 90% RPMI/10% TSB at 30°C for 24 h. Concentration of conditioned media precipitation added was calculated based on the original volume of sterile conditioned media. Bacterial survival was evaluated by measuring OD600 or counting CFUs.

ShA9-WT = assay: Transmission electron microscopy of ShA9-WT; format: cell-based, Staphylococcus hominis; details: LL-37 (2 μM), 30°C, 30 min; Figure 5B

LL-37
Growth of ShA9-ΔLanti with the combination of LL-37 and ShA9 CM containing lantibiotics (ShA9-ΔLanti): synergistically inhibited growth | Relative proportion of CoNS with antimicrobial activity in mixed bacterial samples [1]: decreased | Shift in relative proportion of the bacterial mixture at lower LL-37 concentrations ([2]; LL-37 1–4 μM): favor growth of S. aureus and ShA9-ΔLanti over the antibiotic-producing ShA9-WT | Effect on the bacterial mixture at higher LL-37 concentrations ([2]; LL-37 8–16 μM): inhibited both the antibiotic-producing CoNS and S. aureus | Survival of CoNS strains with antibiotic activity on pigskin [3]: inhibited survival | Antimicrobial interaction of LL-37 combined with Pep-5 on S. hominis C6 (S. hominis C6 strain): synergy | Electron microscopy findings in ShA9-WT after exposure (ShA9-WT): disruption of cytoplasmic membrane integrity and development of a mesosome-like structure within the cytosol
